Measurements taken from PubChem BioAssay (NCI).
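All cell lines were grown in 96-well plates and treated with compound for 48 hours. At the GI50, growth is halved. TGI marks complete inhibition of growth.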

How the values were obtained:
Test in all cases: growth of human tumour cells (NCI), 48 h
SW-620 colon = tested on: SW-620 colon
NCI-H460 lung = tested on: NCI-H460 lung
MALME-3M melanoma = tested on: MALME-3M melanoma
MOLT-4 leukemia = tested on: MOLT-4 leukemia
LOX IMVI melanoma = tested on: LOX IMVI melanoma
UACC-62 melanoma = tested on: UACC-62 melanoma
MDA-MB-231 breast = tested on: MDA-MB-231 breast
SF-539 CNS = tested on: SF-539 CNS
ACHN renal = tested on: ACHN renal
NCI/ADR-RES ovarian = tested on: NCI/ADR-RES ovarian

SMILES | GI50 (SW-620 colon) [µM] | TGI (SW-620 colon) [µM] | GI50 (NCI-H460 lung) [µM] | TGI (NCI-H460 lung) [µM] | GI50 (MALME-3M melanoma) [µM] | TGI (MALME-3M melanoma) [µM] | GI50 (MOLT-4 leukemia) [µM] | TGI (MOLT-4 leukemia) [µM] | GI50 (LOX IMVI melanoma) [µM] | TGI (LOX IMVI melanoma) [µM] | GI50 (UACC-62 melanoma) [µM] | TGI (UACC-62 melanoma) [µM] | GI50 (MDA-MB-231 breast) [µM] | TGI (MDA-MB-231 breast) [µM] | GI50 (SF-539 CNS) [µM] | TGI (SF-539 CNS) [µM] | GI50 (ACHN renal) [µM] | GI50 (NCI/ADR-RES ovarian) [µM] | TGI (NCI/ADR-RES ovarian) [µM] | TGI (ACHN renal) [µM]
O=C1c2c(c3c4ccccc4n(CCCCCCN4CCOCC4)c3c3[nH]c4ccccc4c23)C(=O)N1O | 1.68 | 3.93 | 1.81 | 3.66 | 1.74 | 3.76 | 1.79 | 4.63 | 0.21 | 0.736 | 1.91 | 4.62 | 2.17 | 7.76 | 1.9 | 4.03 | 4.14 | > 69.8 | > 100 | –
Cc1ccc2c(c1)C(=O)/C(=C/c1cccc(OCC(=O)c3ccc(Cl)cc3)c1)CS2 | 1.95 | 4.19 | 18.8 | > 100 | 15.5 | 46.1 | 2.69 | 8.32 | 1.84 | 3.87 | 9.14 | 25.8 | 8.21 | 76.1 | 17.8 | 36.6 | 8.72 | 2.68 | 9.02 | 21.2
O=c1oc2ccc(I)cc2c(=O)n1-c1ccc(I)cc1F | 0.821 | 13.1 | 0.429 | 10.3 | 0.36 | 2.54 | 1.35 | 4.94 | 0.532 | 4.66 | 0.279 | 1.11 | 0.579 | 6.14 | 0.484 | 4.29 | 0.616 | 0.568 | 5.69 | 11.7
O=C(CS(=O)c1nc2ccccc2nc1-c1ccccc1)Nc1ccc(Cl)cc1 (stereo not given) | 26.7 | 88.2 | 18.6 | 47.7 | 19.1 | 46.7 | 24.4 | 69.3 | 17.5 | 33.6 | 16 | 40.7 | 18.5 | 49.1 | 14 | > 100 | 21.4 | 26.4 | 81.2 | 51.1
CC[C@H](C)C(=O)O[C@H]1CCC=C2C=C[C@H](C)[C@H](CC[C@@H]3C[C@@H](O)CC(=O)O3)[C@H]21 | 11.8 | > 100 | 8.59 | > 100 | – | > 100 | – | > 100 | 1.07 | 6.53 | 2.51 | > 24.4 | 0.352 | 2.54 | 12.8 | > 100 | 1.46 | 3.34 | > 100 | 5.18
COC(=O)c1cc2c([nH]c3ccccc32)c(-c2nc3ccccc3cc2CO)n1 | > 100 | > 100 | > 100 | > 100 | > 100 | > 100 | > 100 | > 100 | > 100 | > 100 | > 100 | > 100 | 40 | > 100 | 47 | > 100 | 30 | > 100 | > 100 | > 100
Cc1cc2oc(=O)cc(OC/C=C3/CCC(=O)O3)c2cc1C | 2.78 | 11.6 | 6.6 | 32.5 | 2.39 | 7.62 | 2.25 | 13.4 | 1.82 | 4.59 | 3.38 | 13.6 | 7.71 | 21 | 1.34 | 5.7 | 0.804 | 5.09 | 23.2 | 2.04
NS(=O)(=O)c1ccc(-n2nc(-c3ccccc3)cc2-c2cc(O)ccc2O)cc1 | > 100 | > 100 | > 100 | > 100 | – | – | 8.71 | > 100 | 27.7 | 63.2 | 44.9 | > 100 | 25.6 | 72 | – | – | 89.8 | > 100 | > 100 | > 100
CCOC1Oc2ccccc2C(=O)/C1=C\Nc1ccc(C(=O)O)c(O)c1 (stereo not given) | 30.8 | > 100 | 38.9 | > 100 | – | – | > 100 | > 100 | 18.2 | 46.8 | 19.6 | 43.5 | 14 | 31.2 | 25.5 | 59.5 | 18.3 | 20.5 | 62 | 44.3
Cc1cnc(-c2ccc(-c3ccc(NC(=O)Nc4cccc(C(F)(F)F)c4)cc3F)c3c2C(=O)NC3)[nH]1 | 0.081 | 17.4 | 0.304 | 26.8 | 1.47 | 23.1 | 1.37 | > 53.4 | 0.357 | 17.7 | 9.61 | 35.5 | 26 | > 57.3 | 0.251 | 22.7 | 1.97 | 31.4 | > 100 | > 52.8
CCc1c2c(nc3ccc(OC(=O)OCc4ccc(B5OC(C)(C)C(C)(C)O5)cc4)cc13)-c1cc3c(c(=O)n1C2)COC(=O)[C@]3(O)CC | < 0.0127 | – | < 0.01 | 0.182 | 0.0279 | 0.637 | < 0.01 | > 100 | < 0.01 | 0.196 | < 0.01 | 0.104 | 0.892 | 43.7 | < 0.01 | 0.0286 | < 0.01 | 0.0273 | > 100 | 0.432
CCCCNP1(NCCCC)=NP(NCCCC)(NCCCC)=NP(NCCCC)(NCCCC)=NP(NCCCC)(NCCCC)=N1 | 0.861 | 15.9 | 0.594 | 4.25 | 0.232 | 2.6 | 0.491 | 3.99 | 0.29 | 2.11 | 0.567 | 5.91 | 0.418 | 4.08 | 2.89 | 8.55 | 2.5 | 73.3 | > 100 | > 32.9
